# System: moLRP (marine origin Lactonase Related Protein), putative AHL lactonase of the PTE-Like-Lactonase (PLL) family from marine metagenomes, recombinant with 6×His …
# Test: AHL lactonase activity of purified moLRP (hydrolysis of N-acyl homoserine lactones, Michaelis-Menten kinetics, pH indicator cresol purple)
# Format: biochemical, marine metagenome (Tara Oceans); MAG of phylum Chloroflexi
# Details: hydrolysis of AHLs by moLRP; Table 1; FIG. 3 (C4-HSL): E0=0.4 μM, 27° C.; error = standard deviation, at least three independent measurements
SMILES,Km,kcat
"CCCCCC(=O)CC(=O)NC1CCOC1=O (racemic) [3-Oxo C8-HSL, N-(3-oxooctanoyl)-DL-homoserine lactone]",74.8 ± 11 µM,0.519 ± 0.02 s⁻¹
"CCCC(=O)CC(=O)N[C@H]1CCOC1=O [3-Oxo C6-HSL, N-(3-oxohexanoyl)-L-homoserine lactone]",150 ± 13 µM,1.30 ± 0.10 s⁻¹
"CCCCCCC(=O)N[C@H]1CCOC1=O [C7-HSL, N-heptanoyl-L-homoserine lactone]",112 ± 19 µM,0.230 ± 0.02 s⁻¹
"CCCC(=O)N[C@H]1CCOC1=O [C4-HSL, N-butyryl-L-homoserine lactone]",96.5 ± 15.3 µM,1.85 ± 0.11 s⁻¹

# From patent publication US20240309342A1, “QUORUM QUENCHING ENZYME, AND METHODS OF USING SAME” (MIGAL GALILEE RESEARCH INSTITUTE LTD., priority 2021, published 2024)
